In US20230357179A1, “RAF KINASE INHIBITORS AND METHODS OF USE THEREOF” (Deciphera Pharmaceuticals, LLC, priority 2021, published 2023) one finds IC50 data, which are given here for seven compounds.

Broadly, the IC50 is the concentration needed to halve the response being measured.

T1 sequence (P10398 with tags, fused parts or gaps Y301D/Y302D): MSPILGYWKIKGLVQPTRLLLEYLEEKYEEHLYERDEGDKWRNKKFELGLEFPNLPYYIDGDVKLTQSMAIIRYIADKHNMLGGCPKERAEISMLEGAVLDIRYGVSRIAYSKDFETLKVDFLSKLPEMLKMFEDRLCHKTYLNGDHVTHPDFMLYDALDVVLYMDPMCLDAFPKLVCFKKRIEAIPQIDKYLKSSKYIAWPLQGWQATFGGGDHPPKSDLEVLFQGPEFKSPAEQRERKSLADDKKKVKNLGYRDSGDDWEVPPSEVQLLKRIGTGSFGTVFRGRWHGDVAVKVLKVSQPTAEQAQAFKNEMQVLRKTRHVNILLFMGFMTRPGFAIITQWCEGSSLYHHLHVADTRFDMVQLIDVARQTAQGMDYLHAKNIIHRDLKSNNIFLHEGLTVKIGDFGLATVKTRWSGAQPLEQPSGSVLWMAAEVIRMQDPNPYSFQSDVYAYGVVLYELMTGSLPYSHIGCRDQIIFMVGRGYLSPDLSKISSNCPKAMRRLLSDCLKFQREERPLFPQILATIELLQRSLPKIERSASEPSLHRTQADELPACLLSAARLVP
T4 sequence (P15056 416-766 V600E): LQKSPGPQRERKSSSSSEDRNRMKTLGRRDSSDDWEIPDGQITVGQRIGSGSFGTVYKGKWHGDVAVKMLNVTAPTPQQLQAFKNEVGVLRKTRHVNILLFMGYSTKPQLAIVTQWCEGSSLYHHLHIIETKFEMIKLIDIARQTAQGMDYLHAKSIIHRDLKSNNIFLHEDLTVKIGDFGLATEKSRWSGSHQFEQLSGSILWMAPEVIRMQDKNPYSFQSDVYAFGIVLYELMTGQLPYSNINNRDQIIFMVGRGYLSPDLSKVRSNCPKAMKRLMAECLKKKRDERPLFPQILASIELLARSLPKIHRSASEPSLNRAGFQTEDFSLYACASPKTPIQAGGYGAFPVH

One assay addresses T1, A-Raf kinase (Homo sapiens, UniProt P10398, Y301D/Y302D).
T1 construct: purchased Sigma
Put plainly: Biochemical assay for A-Raf.1 (coupled pyruvate kinase/lactate dehydrogenase). The note with it: read-out: ARAF.1 IC50. The method, then:
Biochemical assay for A-Raf.1
(§1) Activity of A-Raf kinase (SEQ. ID NO. 1) was determined spectroscopically using a coupled pyruvate kinase/lactate dehydrogenase assay that continuously monitors the ATP hydrolysis-dependent oxidation of NADH (e.g., Schindler et al., Science, 2000, 289, 1938-1942). Assays were conducted in 384-well plates (100 μL final volume) using 5.55 nM A-Raf (Sigma), 1.5 units pyruvate kinase, 2.1 units lactate dehydrogenase, 1 mM phosphoenol pyruvate, 0.28 mM NADH, 30.1 nM MEK (SignalChem), and 1 mM ATP in assay buffer (100 mM Tris, pH 7.5, 15 mM MgCl2, 0.5 mM DTT, 0.1% octyl-glucoside, 0.002% (w/v) BSA, and 0.002% Triton X-100). Inhibition of A-Raf was measured by adding serial diluted test compound (final assay concentration of 1% DMSO). A decrease in absorption at 340 nm was monitored continuously for 6 h at 30° C. on a multi-mode microplate reader (BioTek). The reaction rate was calculated using the 4 to 5 h time frame. The reaction rate at each concentration of compound was converted to percent inhibition using controls (i.e., reaction with no test compound and reaction with a known inhibitor) and IC50 values were calculated by fitting a four-parameter sigmoidal curve to the data using Prism (GraphPad software).
Turning to `Cc1cc(F)c(NC(=O)NCCC(C)(C)C#N)cc1-c1cc(OCCO)nc(-c2ccncc2)c1` [Example 41], the IC50 was above 1000 nM.

In the case of `CC(=O)Nc1cc(-c2cc(-c3cc(NC(=O)NCCC(C)(C)C(F)(F)F)c(F)cc3C)cc(C3CC3)n2)ccn1` [Example 56], the IC50 is above 1000 nM.

Take `Cc1cc(F)c(NC(=O)NC[C@H]2CCO2)cc1-c1cc(OCCO)nc(-c2ccnc3[nH]ncc23)c1` [Example 93]: the IC50 was above 1000 nM.

As to `Cc1cc(F)c(NC(=O)N2CCC(C)(C#N)C2)cc1-c1cc(OCCO)nc(-c2ccnc3[nH]ncc23)c1` (centres unmarked) [Example 95], the IC50 is above 1000 nM.

Regarding `CCNC(=O)Nc1cc(-c2cc(OCCO)nc(-c3ccnc(NC(=O)C4CC4)c3)c2)c(C)cc1F` [Example 98], the IC50 was above 1000 nM.

For `COC1(CCNC(=O)Nc2cc(-c3ccnc(-c4ccnc(NC(=O)C5CC5)c4)c3)c(C)cc2F)CC1` [Example 116], the IC50 is 100 to 500 nM.

As for `COC(=O)Nc1cc(-c2cc(-c3cc(NC(=O)NCCC4CN(C)C4)cnc3C)cc(OCCO)n2)ccn1` [Example 183], the IC50 is above 1000 nM.

Another assay deals with T2, B-Raf kinase (Homo sapiens, UniProt P15056).
T2 construct: GST (N); purchased Sigma
T2 sequence (P15056 416-766): as the sequence (P15056 416-766 V600E) above, with E185V counted along it
Put plainly: Biochemical assay for B-Raf.1 (coupled pyruvate kinase/lactate dehydrogenase). Conditions: read-out: BRAF.1 IC50. Here is the method: Biochemical Assay for B-Raf.1
as §1, with “B-Raf” for “A-Raf”, “NO: 2)” for “NO. 1)”, “0.13” for “5.55”
With `Cc1cc(F)c(NC(=O)NCCC(C)(C)C#N)cc1-c1cc(OCCO)nc(-c2ccncc2)c1` [Example 41], the IC50 lay within 100 to 500 nM.

`CC(=O)Nc1cc(-c2cc(-c3cc(NC(=O)NCCC(C)(C)C(F)(F)F)c(F)cc3C)cc(C3CC3)n2)ccn1` [Example 56]: the IC50 is at most 100 nM.

For the compound `Cc1cc(F)c(NC(=O)NC[C@H]2CCO2)cc1-c1cc(OCCO)nc(-c2ccnc3[nH]ncc23)c1` [Example 93], the IC50 is above 1000 nM.

With `Cc1cc(F)c(NC(=O)N2CCC(C)(C#N)C2)cc1-c1cc(OCCO)nc(-c2ccnc3[nH]ncc23)c1` (centres unmarked) [Example 95], the IC50 is 500 to 1000 nM.

For the compound `CCNC(=O)Nc1cc(-c2cc(OCCO)nc(-c3ccnc(NC(=O)C4CC4)c3)c2)c(C)cc1F` [Example 98], the IC50 was in the range of 100 to 500 nM.

Take `COC1(CCNC(=O)Nc2cc(-c3ccnc(-c4ccnc(NC(=O)C5CC5)c4)c3)c(C)cc2F)CC1` [Example 116]: the IC50 is at most 100 nM.

As to `COC(=O)Nc1cc(-c2cc(-c3cc(NC(=O)NCCC4CN(C)C4)cnc3C)cc(OCCO)n2)ccn1` [Example 183], the IC50 is above 1000 nM.

In a further assay the target is T3, C-Raf kinase (Homo sapiens, UniProt P04049, Y340D/Y341D).
T3 construct: Y340D,; GST (N); purchased Sigma
T3 sequence (P04049 307-648 Y340D/Y341D): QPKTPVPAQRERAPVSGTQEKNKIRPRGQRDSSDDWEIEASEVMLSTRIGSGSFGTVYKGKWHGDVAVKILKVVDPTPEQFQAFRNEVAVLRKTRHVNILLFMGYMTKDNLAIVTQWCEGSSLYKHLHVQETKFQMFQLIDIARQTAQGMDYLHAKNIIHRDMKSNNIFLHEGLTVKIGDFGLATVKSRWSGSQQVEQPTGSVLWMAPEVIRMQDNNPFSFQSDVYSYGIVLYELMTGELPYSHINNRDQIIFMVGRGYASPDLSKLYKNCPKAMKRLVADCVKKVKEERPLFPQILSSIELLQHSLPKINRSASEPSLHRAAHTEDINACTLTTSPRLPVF
Nature of the assay: Biochemical assay for C-Raf.1 (coupled pyruvate kinase/lactate dehydrogenase). Conditions: read-out: CRAF.1 IC50. Here is the method: Biochemical Assay for C-Raf.1
as §1, with “C-Raf” for “A-Raf”, “NO: 3)” for “NO. 1)”, “0.43” for “5.55”
For `Cc1cc(F)c(NC(=O)NCCC(C)(C)C#N)cc1-c1cc(OCCO)nc(-c2ccncc2)c1` [Example 41], the IC50 lay in the range of 100 to 500 nM.

Turning to `CC(=O)Nc1cc(-c2cc(-c3cc(NC(=O)NCCC(C)(C)C(F)(F)F)c(F)cc3C)cc(C3CC3)n2)ccn1` [Example 56], the IC50 was at most 100 nM.

In the case of `Cc1cc(F)c(NC(=O)NC[C@H]2CCO2)cc1-c1cc(OCCO)nc(-c2ccnc3[nH]ncc23)c1` [Example 93], the IC50 is above 1000 nM.

`Cc1cc(F)c(NC(=O)N2CCC(C)(C#N)C2)cc1-c1cc(OCCO)nc(-c2ccnc3[nH]ncc23)c1` (centres unmarked) [Example 95]: the IC50 was 500 to 1000 nM.

For the compound `CCNC(=O)Nc1cc(-c2cc(OCCO)nc(-c3ccnc(NC(=O)C4CC4)c3)c2)c(C)cc1F` [Example 98], the IC50 was at most 100 nM.

For the compound `COC1(CCNC(=O)Nc2cc(-c3ccnc(-c4ccnc(NC(=O)C5CC5)c4)c3)c(C)cc2F)CC1` [Example 116], the IC50 is at most 100 nM.

`COC(=O)Nc1cc(-c2cc(-c3cc(NC(=O)NCCC4CN(C)C4)cnc3C)cc(OCCO)n2)ccn1` [Example 183]: the IC50 is above 1000 nM.

Another assay has as its target T4, B-Raf (V600E) kinase (Homo sapiens, UniProt P15056, V600E).
T4 construct: B-Raf (V600E) residues 416-766 with a; GST (N); purchased SignalChem
Put plainly: Biochemical assay for B-Raf (V600E).1 (coupled pyruvate kinase/lactate dehydrogenase). Conditions: read-out: BRAF V600E.1 IC50. The method, then: Biochemical Assay for B-Raf (V600E).1
Activity of B-Raf (V600E) (SEQ. ID NO: 4) kinase was determined spectroscopically using a coupled pyruvate kinase/lactate dehydrogenase assay that continuously monitors the ATP hydrolysis-dependent oxidation of NADH (e.g., Schindler et al., Science, 2000, 289, 1938-1942). Assays were conducted in 384-well plates (100 μL final volume) using 0.03 nM B-Raf (SignalChem), 1.5 units pyruvate kinase, 2.1 units lactate dehydrogenase, 1 mM phosphoenol pyruvate, 0.28 mM NADH, 30.1 nM MEK (SignalChem), and 1 mM ATP in assay buffer (100 mM Tris, pH 7.5, 15 mM MgCl2, 0.5 mM DTT, 0.1% octyl-glucoside, 0.002% (w/v) BSA, and 0.002% Triton X-100). Inhibition of B-Raf (V600E) was measured by adding serial diluted test compound (final assay concentration of 1% DMSO). A decrease in absorption at 340 nm was monitored continuously for 6 h at 30° C. on a multi-mode microplate reader (BioTek). The reaction rate was calculated using the 3 to 4 h time frame. The reaction rate at each concentration of compound was converted to percent inhibition using controls (i.e., reaction with no test compound and reaction with a known inhibitor) and IC50 values were calculated by fitting a four-parameter sigmoidal curve to the data using Prism (GraphPad software).
On to `Cc1cc(F)c(NC(=O)NCCC(C)(C)C#N)cc1-c1cc(OCCO)nc(-c2ccncc2)c1` [Example 41], for which the IC50 was at most 100 nM.

As to `CC(=O)Nc1cc(-c2cc(-c3cc(NC(=O)NCCC(C)(C)C(F)(F)F)c(F)cc3C)cc(C3CC3)n2)ccn1` [Example 56], the IC50 is at most 100 nM.

For the compound `Cc1cc(F)c(NC(=O)NC[C@H]2CCO2)cc1-c1cc(OCCO)nc(-c2ccnc3[nH]ncc23)c1` [Example 93], the IC50 is above 1000 nM.

With `Cc1cc(F)c(NC(=O)N2CCC(C)(C#N)C2)cc1-c1cc(OCCO)nc(-c2ccnc3[nH]ncc23)c1` (centres unmarked) [Example 95], the IC50 was at most 100 nM.

On to `CCNC(=O)Nc1cc(-c2cc(OCCO)nc(-c3ccnc(NC(=O)C4CC4)c3)c2)c(C)cc1F` [Example 98], for which the IC50 is at most 100 nM.

In the case of `COC1(CCNC(=O)Nc2cc(-c3ccnc(-c4ccnc(NC(=O)C5CC5)c4)c3)c(C)cc2F)CC1` [Example 116], the IC50 is at most 100 nM.

For the compound `COC(=O)Nc1cc(-c2cc(-c3cc(NC(=O)NCCC4CN(C)C4)cnc3C)cc(OCCO)n2)ccn1` [Example 183], the IC50 was above 1000 nM.

The next assay deals with A375 cells. Nature of the assay: A375 cell proliferation assay (1), resazurin, 96-well. It is filed as cell-based. Conditions: Homo sapiens, A-375, inhibition of cell proliferation. The method, then: A375 Cell Proliferation Assay (1)
A375 cells (catalog (#CRL-1619) are obtained from the American Type Culture Collect (ATTC, Manassas, VA). Briefly, cells were grown in DMEM High Glucose supplemented with 10% characterized fetal bovine serum (Invitrogen, Carlsbad, CA) and 1% Penicillin/Streptomycin/L-Glutamine at 37° C., 5% CO2, and 95% humidity. Cells are expanded until reaching 70-95% confluency at which point they are sub-cultured or harvested for assay use. A serial dilution of test compound is dispensed into a 96-well black clear bottom plate in triplicate. Two thousand five hundred cells are added per well in 200 μL complete growth medium in the 96-well plate. Plates are incubated for 67-72 hours at 37° C., 5% CO2, and 95% humidity. At the end of the incubation, 40 μL of a 440 μM solution of resazurin (Sigma, St. Louis, MO) in PBS is added to each well of the plate and plates are incubated for an additional 5-6 hours at 37° C., 5% CO2, and 95% humidity. Plates are read on a Synergy2 or equivalent reader (Biotek, Winooski VT) using an excitation of 540 nm and an emission of 600 nm. Data is analyzed using Prism software (GraphPad, San Diego, CA) to calculate IC50 values.
(In general: The colour change of resazurin is a common sign of viable cells or microbes.)
Turning to `Cc1cc(F)c(NC(=O)NCCC(C)(C)C#N)cc1-c1cc(OCCO)nc(-c2ccncc2)c1` [Example 41], the IC50 is 1000 to 10000 nM.

Take `CC(=O)Nc1cc(-c2cc(-c3cc(NC(=O)NCCC(C)(C)C(F)(F)F)c(F)cc3C)cc(C3CC3)n2)ccn1` [Example 56]: the IC50 was 500 to 1000 nM.

In the case of `Cc1cc(F)c(NC(=O)NC[C@H]2CCO2)cc1-c1cc(OCCO)nc(-c2ccnc3[nH]ncc23)c1` [Example 93], the IC50 lay within 1000 to 10000 nM.

`Cc1cc(F)c(NC(=O)N2CCC(C)(C#N)C2)cc1-c1cc(OCCO)nc(-c2ccnc3[nH]ncc23)c1` (centres unmarked) [Example 95]: the IC50 lay within 1000 to 10000 nM.

In the case of `CCNC(=O)Nc1cc(-c2cc(OCCO)nc(-c3ccnc(NC(=O)C4CC4)c3)c2)c(C)cc1F` [Example 98], the IC50 fell in the range of 1000 to 10000 nM.

On to `COC1(CCNC(=O)Nc2cc(-c3ccnc(-c4ccnc(NC(=O)C5CC5)c4)c3)c(C)cc2F)CC1` [Example 116], for which the IC50 lay within 1000 to 10000 nM.

As for `COC(=O)Nc1cc(-c2cc(-c3cc(NC(=O)NCCC4CN(C)C4)cnc3C)cc(OCCO)n2)ccn1` [Example 183], the IC50 is 1000 to 10000 nM.
